Test results published in patent publication US10322187B2, “Reduced toxicity molecular conjugates of anti-fungal agents” (Lehigh University, priority 2015, dated 2019).
Read-outs that look alike come from different tables or passages of the source. Values belong to the molecule of their own block, whether it stands above or below them.

Assays:
sheep red blood cells = test: Hemolysis measurements, release of hemoglobin; type: cell-based
Experimental: Sheep Red Blood Cells, 10%, in saline (Innovative Research, Novi, Mich.), were diluted in saline (pH 7.4) to a concentration of 4%, which corresponds to 4×10^7 cells/mL. All measurements were carried out in duplicate. Solutions of Amphotericin B (Sigma-Aldrich) were prepared by adding 10 μL of a DMSO solution containing a given concentration of the antibiotic (i.e., ranging from 0.2 mM to 50 mM) to 490 μL of PBS. After the resulting solution was vortex mixed for 30 seconds (s) it was incubated at 37° C. for 15 min. The resulting solution of antibiotic (500 μL) was then mixed with 500 μL of the 4% erythrocyte dispersion at 37° C. in a 1 mL plastic centrifuge vial to give a dispersion that was vortex mixed at slow rate for 5 s. After 1 h of incubation at 37° C., all samples were centrifuged (1500 g, Eppendorf centrifuge 5415C, 5000 rpm) at rt for 5 min. The supernatant (˜0.7 mL) from each plastic vial was carefully separated from sediment using a disposable glass pipette and quickly transferred to test tube. A volume of 50 μL of this supernatant was then transferred to a UV cell containing 500 μL of PBS that was maintained at 37° C. The UV spectrum was then scanned (450-650 nm) and the absorbance at 575 nm used to determine the extent of hemolysis. The extent of 0% and 100% of hemolysis was obtained from A575 values of experiments that were run in absence of AmphB (control, [A575,]o) and in presence, 100 μM AmphB ([A575]max), respectively.

C. glabrata = test: Antifungal activities, MIC/MFC; type: cell-based
Experimental: (§1) A similar sequence of reactions was carried out using lysine dicholamide in place of cholic acid afforded VJ-1147 of Table 2. To assess the antifungal properties of the diwalled VJ-1138 (Table 2) and 2a of Table 3, their in vitro activities were examined against four clinically relevant microbes, i.e., C. albicans, C. glabrata, C. neoformans, and C. gatti (Table 4).
(§2) Minimum inhibitory concentrations (MIC) and minimum fungicidal concentrations (MFC) are the lowest concentrations that are required for completely inhibiting growth, and killing at least 99% of the fungi, respectively.
(§3) The above molecules were tested for antifungal activity. Minimum inhibitory concentrations (MIC) and minimum fungicidal concentrations (MFC) are the lowest concentrations that are required for completely inhibiting growth, and killing at least 99% of the fungi, respectively. As is apparent from Table 4 below, there is a general trend; i.e., increased antifungal activity is observed as the length of the hydrocarbon chain that separates the facial amphiphile from the Amphotericin B moiety is decreased.

C. neoformans = test: Antifungal activities, MIC/MFC; type: cell-based
Experimental: as §1, §2, §3

C. albicans = test: Antifungal activities, MIC/MFC; type: cell-based
Experimental: as §1, §2, §3

C. gatti = test: Antifungal activities, MIC/MFC; type: cell-based
Experimental: as §1, §2, §3

HEK293T cells = test: Inhibition of cell growth, MTT cell viability; type: cell-based, human; settings: varying concentrations; FIG. 11
Experimental: Human embryonic kidney HEK293 cells were cultured in Dulbecco's modified Eagle's medium (DMEM supplemented with 10% FBS, 100 U/mL penicillin, and 0.1 mg/mL SI-10 streptomycin) in a humidified atmosphere of 5% CO2 at 37° C.
HEK293T cells were seeded in 96-well plates at a density of 6,000 cells/well and incubated overnight. Before treatment, compounds aliquots were solubilized in DMSO to obtain 10 mM stock solutions. Appropriate volumes of these stock solutions were added to DMEM media so the final concentration of DMSO is equal to 1%. After removal of cell media, 50 μL of treatment solutions were added to each well and incubated at 37° C. for 2 h. After treatment, the media was removed, and 100 μL of complete medium was added to each well before returning the plate to the incubator. Cell viability was determined after 72 h using the colorimetric MTT assay. Briefly, 10 μL of a 5 mg/mL MTT stock solution was added to the treated cells and incubated for 2 h at 37° C. The resulting formazan crystals were solubilized in 200 μL of DMSO, and the absorbance was measured at 580 nm using an Infinite 200 PRO microplate reader (Tecan). Cell viability was calculated against control cells treated with the vehicle in DMEM.

[1] = Critical aggregation concentration (CAC) by UV absorptivity; type: physicochemical; settings: PBS, 37° C., absorptivity at 409 nm
Excerpt: If one lets: (i) T, m, and P represent the total, the monomeric, and the aggregate concentrations of this macrolide, respectively; (ii) ε represent the apparent molar absorptivity; and (iii) εm and εp represent the molar absorptivity for the monomeric and aggregate components, respectively, then it can be shown that ε=εp+(εm−εp)m/T. See Yamashita K, Janout V, Bernard E M, Armstrong D, and Regen, S L. Micelle/monomer control over the membrane disrupting properties of an amphiphilic antibiotic. J. Am. Chem. Soc. 117 (1995) 6249-6253. At concentrations that are in excess of its CAC, m is constant, and ε is expected to be inversely proportional to T. Thus, by measuring the apparent molar absorptivity as a function of the reciprocal of the concentration of VJ-1138, its CAC value is estimated to be 0.9 μM (from the intercept of two straight lines).
Determination of Critical Aggregation Concentration (CAC) of AmphB and molecular conjugates. Solutions of AmphB and molecular conjugates in DMSO (Sigma-Aldrich) were prepared having a concentration of 1.00 mM. […] The UV spectrum was then recorded in the range of 250-550 nm. The absorbance at 408 nm was plotted as a function of the reciprocal value of the concentration of AmB and the critical aggregation concentration of the molecular conjugates was then determined, graphically.

[2] = test system: C. albicans, C. glabrata, C. neoformans, and C. gatti; test: In vitro antifungal activity, general statements on the four microbes; type: cell-based; settings: at 11 μM
Experimental: as §1, §2

[3] = at concentrations as high as 400 μM, 37° C. in PBS, pH 7.4
[4] = summary, no concentration stated
[5] = second Table 4 (Example 4), C. glabrata
[6] = second Table 4 (Example 4), C. neoformans
[7] = second Table 4 (Example 4), C. albicans
[8] = second Table 4 (Example 4), C. gatti

SMILES: CC1OC(O[C@H]2/C=C/C=C/C=C/C=C/C=C/C=C/C=C/[C@H](C)[C@@H](O)[C@@H](C)[C@H](C)OC(=O)C[C@H](O)C[C@H](O)CC[C@@H](O)[C@H](O)C[C@H](O)C[C@]3(O)C[C@H](O)[C@@H](C(=O)NCCCCCCCCCCNC(=O)CC[C@@H](C)C4CCC5C6C(O)CC7CC(O)CCC7(C)C6CC(O)C54C)[C@H](C2)O3)C(O)C(N)C1O (stereo partly drawn) [YYM-71]
hemolytic activity (sheep red blood cells; [3]): negligible hemolytic activities
hemolytic activity (sheep red blood cells; [4]): negligible hemolytic activity
MIC (C. glabrata; [5]): >16/— μg/mL
MFC (C. neoformans; [6]): > 16 µg/mL
MIC (C. neoformans; [6]): 2 µg/mL
MIC (C. albicans; [7]): >16/— μg/mL
MFC (C. gatti; [8]): > 16 µg/mL
MIC (C. gatti; [8]): 1 µg/mL
toxicity towards HEK293 cells (HEK293T cells): negligible cytotoxicity

MIC (C. glabrata; Nakaseomyces glabratus, first Table 4, C. glabrata, read-out: MIC): 0.5 µM
MIC (C. glabrata; Nakaseomyces glabratus, second Table 4 (Example 4), C. glabrata, read-out: MIC): 0.5 µg/mL
MIC (C. neoformans; Cryptococcus neoformans, first Table 4, C. neoformans, read-out: MIC): 0.3 µM
MIC (C. neoformans; Cryptococcus neoformans, second Table 4 (Example 4), C. neoformans, read-out: MIC): 0.3 µg/mL
MIC (C. albicans; Candida albicans, first Table 4, lowest concentration completely inhibiting growth, C. albicans, read-out: MIC): 0.5 µM
MIC (C. albicans; Candida albicans, second Table 4 (Example 4), C. albicans, read-out: MIC): 0.5 µg/mL
MIC (C. gatti; first Table 4, C. gatti, read-out: MIC): 0.3 µM
MIC (C. gatti; second Table 4 (Example 4), C. gatti, read-out: MIC): 0.3 µg/mL
critical aggregation concentration (CAC) [1]: ~0.9 µM
SMILES: C[C@@H]1[C@H](O)[C@@H](C)/C=C/C=C/C=C/C=C/C=C/C=C/C=C/[C@H](O[C@@H]2O[C@H](C)[C@@H](O)[C@H](N)[C@@H]2O)C[C@@H]2O[C@](O)(C[C@@H](O)C[C@@H](O)[C@H](O)CC[C@@H](O)C[C@@H](O)CC(=O)O[C@H]1C)C[C@H](O)[C@H]2C(=O)O [AmphB, amphotericin B, reference compound]
EH50, concentration required to induce 50% release of hemoglobin from erythrocytes (sheep red blood cells; 37° C. in saline, pH 7.4): 4 µM
MFC (C. glabrata; Nakaseomyces glabratus, first Table 4, C. glabrata): 1 µM
MFC (C. glabrata; Nakaseomyces glabratus, second Table 4 (Example 4), C. glabrata): 1 µg/mL
MFC (C. neoformans; Cryptococcus neoformans, first Table 4, C. neoformans, read-out: MFC): 0.5 µM
MFC (C. neoformans; Cryptococcus neoformans, second Table 4 (Example 4), C. neoformans, read-out: MFC): 0.5 µg/mL
MFC (C. albicans; Candida albicans, first Table 4, lowest concentration killing at least 99% of the fungi, C. albicans, read-out: MFC): 1 µM
MFC (C. albicans; Candida albicans, second Table 4 (Example 4), C. albicans, read-out: MFC): 1 µg/mL
MFC (C. gatti; first Table 4, C. gatti, read-out: MFC): 0.5 µM
MFC (C. gatti; second Table 4 (Example 4), C. gatti, read-out: MFC): 0.5 µg/mL

SMILES: CC1OC(O[C@H]2/C=C/C=C/C=C/C=C/C=C/C=C/C=C/[C@H](C)[C@@H](O)[C@@H](C)[C@H](C)OC(=O)C[C@H](O)C[C@H](O)CC[C@@H](O)[C@H](O)C[C@H](O)C[C@]3(O)C[C@H](O)[C@@H](C(=O)NCCCCCCCCNC(=O)CC[C@@H](C)C4CCC5C6C(O)CC7CC(O)CCC7(C)C6CC(O)C54C)[C@H](C2)O3)C(O)C(N)C1O (stereo partly drawn) [YYM-69]
hemolytic activity (sheep red blood cells; [3]): negligible hemolytic activities
hemolytic activity (sheep red blood cells; [4]): negligible hemolytic activity
MIC (C. glabrata; [5]): >16/— μg/mL
MFC (C. neoformans; [6]): 2 µg/mL
MIC (C. neoformans; [6]): 1 µg/mL
MFC (C. albicans; [7]): 2 µg/mL
MIC (C. albicans; [7]): 2 µg/mL
MFC (C. gatti; [8]): 2 µg/mL
MIC (C. gatti; [8]): 1 µg/mL
toxicity towards HEK293 cells (HEK293T cells): negligible cytotoxicity

SMILES: CC1OC(O[C@H]2/C=C/C=C/C=C/C=C/C=C/C=C/C=C/[C@H](C)[C@@H](O)[C@@H](C)[C@H](C)OC(=O)C[C@H](O)C[C@H](O)CC[C@@H](O)[C@H](O)C[C@H](O)C[C@]3(O)C[C@H](O)[C@@H](C(=O)NCCCCCCCC(=O)N(CCCCNC(=O)C(CCCCNC(=O)CC[C@@H](C)C4CCC5C6C(O)CC7CC(O)CCC7(C)C6CC(O)C54C)NC(=O)CC[C@@H](C)C4CCC5C6C(O)CC7CC(O)CCC7(C)C6CC(O)C54C)CCCNC(=O)C(CCCCNC(=O)CC[C@@H](C)C4CCC5C6C(O)CC7CC(O)CCC7(C)C6CC(O)C54C)NC(=O)CC[C@@H](C)C4CCC5C6C(O)CC7CC(O)CCC7(C)C6CC(O)C54C)[C@H](C2)O3)C(O)C(N)C1O (stereo partly drawn) [VJ-1155]
MIC (C. glabrata; Nakaseomyces glabratus): > 11 µM
MIC (C. neoformans; Cryptococcus neoformans): > 11 µM
MIC (C. albicans; Candida albicans): > 11 µM
MIC (C. gatti): > 11 µM
antifungal activity [2]: no antifungal activity
